Test system: weiblichen und männlichen Mäusen
Test: Acute toxicity in mice after a single oral dose
Type: in vivo
Conditions: observation at least 7 days; for orientierende Toxizität: single dose p.o., suspension in 1% methylcellulose
Excerpt: Bei weiblichen und männlichen Mäusen eigener Zucht mit dem Gewicht von 20-26 g wurde die toxische Wirkung der Substanzen nach oraler Gabe (Suspension in 1%iger Methylcellulose) einer einmaligen Dosis bei einer Nachbeobachtungszeit von mindestens 7 Tagen geprüft. Die nachfolgende Tabelle enthält die gefundenen Werte: […]

[1] = single dose of 2 000 mg/kg p.o.
[2] = single dose of 1 000 mg/kg p.o.

Compound | Tieren gestorben [1] | orientierende Toxizität | Tieren gestorben [2]
CN(C)c1ccc(Cl)cc1C(=O)NCCc1ccc(C(=O)O)cc1 [A, 4-[2-(5-Chlor-2-dimethylamino-benzoylamino)-äthyl]benzoe-säure] | 0 von 6 | > 2 000 mg/kg | –
CN(C)c1ccc(Br)cc1C(=O)NCCc1ccc(C(=O)O)cc1 [B, 4-[2-(5-Brom-2-dimethylamino-benzoylamino)-äthyl]benzoesäure] | – | > 1 000 mg/kg | 0 von 5
O=C(O)c1ccc(CCNC(=O)c2cc(Cl)ccc2N2CCCCC2)cc1 [D, 4-[2-(5-Chlor-2-piperidino-benzoylamino)-äthy]benzoesäure] | 0 von 6 | > 2 000 mg/kg | –
COC(=O)c1ccc(CCNC(=O)c2cc(Cl)ccc2N2CC(C)CC(C)C2)cc1 (centres unmarked) [H, 4-[2-(5-Chlor-2-(3,5-dimethyl-piperidino)-benzoylamino)-äthy]benzoesäure-methylester] | – | > 1 000 mg/kg | 0 von 6
O=C(O)c1cc(Cl)ccc1N1CCC2(CC1)OCCO2 [KK, 5-Chlor-2-(1,4-dioxa-8-aza-spiro[4,5]decan-8-yl)-benzoe-säure] | 0 von 10 | > 2 000 mg/kg | –
O=C(O)c1ccc(CCNC(=O)c2cc(Cl)ccc2N2CCCCCC2)cc1 [O, 4-[2-(5-Chlor-2-hexamethylenimino-benzoylamino)-äthyl]-benzoesäure] | – | > 1 000 mg/kg | 0 von 10
CC1CN(c2ccc(Cl)cc2C(=O)NCCc2ccc(C(=O)O)cc2)CC(C)O1 (centres unmarked) [T, 4-[-(5-Chlor-2-(2,6-dimethyl-morpholino)-benzoylamino)-äthyl]benzoesäure] | – | > 1 000 mg/kg | 0 von 10
CCOC(=O)c1ccc(CCNC(=O)c2cc(Br)ccc2N2CCCCCCC2)cc1 [V, 4-[2-(5-Brom-2-heptamethylenimino-benzoylamino)-äthyl]benzoesäure-äthylester] | – | > 1 000 mg/kg | 0 von 10
O=C(O)c1ccc(CCNC(=O)c2cc(Br)ccc2N2CCCCCCC2)cc1 [W, 4-[2-(5-Brom-2-heptamethylenimino-benzoylamino)-äthyl]-benzoesäure] | – | > 1 000 mg/kg | 0 von 6
O=C(O)c1ccc(CCNC(=O)c2cc(Cl)ccc2N2CCCCCCCC2)cc1 [X, 4-[2-(5-Chlor-2-octamethylenimino-benzoylamino)-äthyl]-benzoesäure] | – | > 1 000 mg/kg | 0 von 6

Reference: EP0023569A1, “Derivatives of carboxylic acids, their preparation and medicaments containing them” (Dr. Karl Thomae GmbH, priority 1979, dated 1981)
